Results as given in US10588316B2 (priority 2015, dated 2020).
Where “and” joins values, the source holds several entries; their conditions need not be identical. Identical values can stand only once.

Columns and labels:
Parameters in all cases: species or system wheat
Settings in all cases: in vivo
DON toxin [1] = test system: DON toxin
DON toxin [2] = test system: DON toxin; remark: listed apart in the source
[3] = test system: toxin synthesis capability of thalli
DON toxin [4] = test system: DON toxin; remark: listed apart in the source
DON toxin [5] = test system: DON toxin; remark: listed apart in the source
DON toxin [6] = test system: DON toxin; remark: listed apart in the source

For `OCC1=CC(N[C@H]2C[C@H](CO)[C@@H](OC3O[C@H](CO)[C@@H](O)[C@H](O)[C@H]3O)C(O)[C@H]2O)[C@H](O)[C@@H](O)C1O` (stereo partly shown) [Jinggangmycin, jinggangmycin A], the “Grain Toxin Content” value (DON toxin [1]) was 2.89 μg/g of kernels and 3.24 μg/g of kernels and 3.86 μg/g of kernels and 4.2 μg/g of kernels and 4.77 μg/g of kernels and the “Grain Toxin Content mg of DON/kg of grain” value (“Grain Toxin Content mg” for short) (DON toxin [2]) was 2.86 mg of DON/kg of grain and 3.82 mg of DON/kg of grain and 4.02 mg of DON/kg of grain and 4.14 mg of DON/kg of grain.

In the case of Tebuconazole, the “DON Synthesis Capability” value [3] is reported as 19.88 and 18.35 and 18.95 and 19.02 and 19.41, the “Grain Toxin Content” value (DON toxin [1]) is reported as 4.02 μg/g of kernels and 3.29 μg/g of kernels and 2.14 μg/g of kernels and 2.08 μg/g of kernels and the “Grain Toxin Content mg” value (DON toxin [2]) is reported as 1.89 mg of DON/kg of grain and 2.14 mg of DON/kg of grain and 2.4 mg of DON/kg of grain and 2.8 mg of DON/kg of grain. For the same molecule, the “Toxin Reduction Percentage %” value (DON toxin [2]) was 58.19% and 52.65% and 46.90% and 38.05%.

In the case of `COC(=O)Nc1nc2ccccc2[nH]1` [Carbendazim, carbendazim], the “DON Synthesis Capability” value [3] is reported as 28.94, the “toxin contamination level of grains” value (DON toxin [4]) is reported as 4.4 mg/kg of grains and the “DON Reduction Percentage” value (DON toxin [5]) is reported as 55.00%. The “Grain Toxin Content (mg of DON/Kg of grain)” value (DON toxin [6]) was 4.35, the “Rate of Decrease in Toxin Content in Grains (%)” value (DON toxin [6]) was 32.7% and the “Grain Toxin Content mg” value (DON toxin [2]) was 2.95 mg of DON/kg of grain. The “Toxin Reduction Percentage %” value (DON toxin [2]) was 34.73%.
